Ends that are not written are not given here.
Legend:
[1] = Log P of the amino acid as quoted in the discussion; source and method not given; cited from earlier work
From the text: The predicted information from HeliQuest referred to the design of analogues (Figure 2). The first modification step was designed to increase hydrophobic characteristics and decrease helicity. […] The ...

S. aureus ATCC CRM 6538 = assay type: cell-based, Staphylococcus aureus
From the text: (§1) The anti-planktonic microorganism efficacy of the peptides was investigated via minimal bacterial inhibitory concentration (MIC) and minimal bactericidal concentration (MBC) assays. Eight types of microorganisms, including Gram-positive bacteria, Staphylococcus aureus (ATCC CRM 6538), Methicillin-resistant Staphylococcus aureus (NCTC 12493), and Enterococcus faecium (NCTC 12697), Gram-negative bacteria, Escherichia coli (ATCC CRM 8739, ATCC BAA 2340, ATCC 13846, ATCC BAA 2469, and ATCC BAA 2471), Klebsiella pneumoniae (ATCC 43816), Pseudomonas aeruginosa (ATCC CRM 9027) and Acinetobacter baumannii (ATCC BAA 747) and a yeast, Candida albicans (ATCC CRM 10231) were utilized to test the antimicrobial activity of peptides.
(§2) For the MIC assay, microorganisms were inoculated with peptides in a 96-well plate. Nutrient broth (NB) was applied for MRSA, E. coli, K. pneumoniae, and P. aeruginosa, tryptic soy broth (TSB) was applied for S. aureus, E. faecium, and A. baumannii, and yeast extract peptone dextrose broth (YPD-B) was used for C. albicans. The microorganisms were cultured (bacteria: 37 °C; yeast: 26 °C) overnight at 120 rpm and subcultured to achieve the logarithmic growth stage (5 × 10^5 CFU/mL), as confirmed by viable cell counts. After that, 99 µL of the subculture and 1 µL of the peptide were added to the 96-well plate. The final concentration of peptides ranged from 128 to 1 µmol/L (µM) using a 2-fold dilution. In addition, four other groups were established simultaneously at the commencement of the test: a growth control group, a vehicle control group (Dimethyl Sulphoxide, DMSO), a positive control group utilizing Norfloxacin at a concentration of 2 mg/mL for bacteria, and Amphotericin B. at a concentration of 1 mg/mL for yeast, and a blank control group (sterile NB/TSB/YPD-B). The MIC values were measured after overnight incubation at 37/26 °C. The optical density (OD) values were analysed at 550 nm using a Synergy HT plate reader (BioTek, Washington, USA), and were calculated using the following equation:(1) Cell Viability %=[(As−A0)/(Ag−A0)]×100% where As is the absorbance value of the sample group, A0 is the average of the absorbance values of the blank control, and Ag is the average of the absorbance values of the growth control. For the MBC assay, 10 µL of the inhibited cultures on the 96-well plate were transferred onto a corresponding medium agar plate and incubated overnight at 37/26 °C to measure MBC values. The results were obtained from three independent assays.

MRSA NCTC 12493 = assay type: cell-based, Methicillin-resistant Staphylococcus aureus
From the text: as §1, §2

E. faecalis NCTC 12697 = assay type: cell-based
E. coli ATCC BAA 2340 = assay type: cell-based, Escherichia coli; conditions: KPC strain, overnight 37 °C, three independent assays; for MIC: NB, 5 × 10^5 CFU/mL, OD 550 nm; for MBC: agar plate
From the text: as §1, §2

E. coli ATCC BAA 2469 = assay type: cell-based, Escherichia coli; conditions: NDM-1 strain, overnight 37 °C, three independent assays; for MIC: NB, 5 × 10^5 CFU/mL, OD 550 nm; for MBC: agar plate
From the text: as §1, §2

E. coli ATCC BAA 2471 = assay type: cell-based, Escherichia coli; conditions: NDM-1 strain, overnight 37 °C, three independent assays; for MIC: NB, 5 × 10^5 CFU/mL, OD 550 nm; for MBC: agar plate
From the text: as §1, §2

E. coli ATCC CRM 8739 = assay type: cell-based, Escherichia coli
From the text: as §1, §2

E. coli NCTC 13846 = assay type: cell-based, Escherichia coli
From the text: as §1, §2

K. pneumoniae ATCC 43816 = assay type: cell-based, Klebsiella pneumoniae
From the text: as §1, §2

[2] = test system: P. aeruginosa ATCC CRM 9027; assay type: cell-based, Pseudomonas aeruginosa
From the text: as §1, §2

[3] = test system: A. baumannii ATCC BAA 747; assay type: cell-based, Acinetobacter baumannii
From the text: as §1, §2

[4] = test system: C. albicans ATCC CRM 10231; assay type: cell-based, Candida albicans; conditions: for MBC / MIC: ATCC CRM 10231
From the text: as §1, §2

horse erythrocytes = assay: Haemolysis activity; assay type: cell-based; conditions: concentration causing 50% haemolysis; 4% (v/v) horse red blood cells in PBS, peptide 128 to 1 µM, 37 °C 2 h, OD 570 nm, 1% Triton X-100 positive control, three separate assays
Description: To start, fresh defibrinated horse blood (TCS Biosciences Ltd., Buckingham, UK) was washed with PBS solution to obtain a clear supernatant. Then, a 4% (v/v) suspension of red blood cells was made in PBS. After this, 100 µL of the peptide solutions were incubated with 100 µL of the suspension of red blood cells in 2 mL centrifuge tubes at 37 °C for 2 h. The ultimate concentration of peptides ranged from 128 to 1 µM obtained by a 2-fold dilution. Also, two other groups were set simultaneously, including a positive control group of 1% Triton X-100 and a blank control group of phosphate-buffered saline (PBS). After incubation and centrifugation at 900× g for 10 min, a volume of 100 µL of the resulting supernatant from each specimen was carefully transferred to individual wells of the 96-well plate. Subsequently, the OD values were analysed using a Synergy HT plate reader (BioTek, USA) at a wavelength of 570 nm using the following equation:(2) Haemolysis Activity %=[(As−A0)/(Ap−A0)]×100% where As is the absorbance value of the supernatant of the peptide group, A0 is the average absorbance value of the blank control, and Ap is the average absorbance value of the positive control. The data were obtained from three separate assays.

Gram-positive bacteria = assay: Geometric mean of MICs and therapeutic index, Gram +; assay type: cell-based; conditions: geometric mean of MICs of Table 3; 256.00 μM used where no activity at 128.00 μM
From the text: as §1
(§3) For the MIC assay, microorganisms were inoculated with peptides in a 96-well plate. […] The MIC values were measured after overnight incubation at 37/26 °C. The optical density (OD) values were analysed at 550 nm using a Synergy HT plate reader (BioTek, Washington, USA), and were calculated using the following equation:(1) Cell Viability %=[(As−A0)/(Ag−A0)]×100% where As is the absorbance value of the sample group, A0 is the average of the absorbance values of the blank control, and Ag is the average of the absorbance values of the growth control. […]

Gram-negative bacteria = assay: Geometric mean of MICs and therapeutic index, Gram −; assay type: cell-based; conditions: geometric mean of MICs of Table 3; 256.00 μM used where no activity at 128.00 μM
From the text: as §1, §3

Compound | Log P [1] | MBC (S. aureus ATCC CRM 6538) | MIC (S. aureus ATCC CRM 6538) | MBC (MRSA NCTC 12493) | MIC (MRSA NCTC 12493) | MBC (E. faecalis NCTC 12697) | MIC (E. faecalis NCTC 12697) | MBC (E. coli ATCC CRM 8739) | MIC (E. coli ATCC CRM 8739) | MBC (K. pneumoniae ATCC 43816) | MIC (K. pneumoniae ATCC 43816) | MBC [2] | MIC [2] | MBC [3] | MIC [3] | MBC [4] | MIC [4] | HC50 (horse erythrocytes) | other results
C[C@H](N)C(=O)O [Alanine] | 3.54 |  |  |  |  |  |  |  |  |  |  |  |  |  |  |  |  |  | 
NC(=O)CC[C@H](N)C(=O)O [Glutamine] | 3.19 |  |  |  |  |  |  |  |  |  |  |  |  |  |  |  |  |  | 
NCC(=O)O [Glycine] | 3.20 |  |  |  |  |  |  |  |  |  |  |  |  |  |  |  |  |  | 
CC(C)[C@H](N)C(=O)O [Valine] | 4.42 |  |  |  |  |  |  |  |  |  |  |  |  |  |  |  |  |  | 
N[C@@H](CO)C(=O)O [serine] | 2.66 |  |  |  |  |  |  |  |  |  |  |  |  |  |  |  |  |  | 
ALWKKILKNAGKAVLNEINQIVQ-NH2 [Peptide 14V5K] |  | 4 µM | 4 µM | 4 µM | 4 µM | >128 µM | >128 µM | 2 µM | 2 µM | 2 µM | 2 µM | 8 µM | 8 µM | 8 µM | 8 µM | 8 µM | 8 µM | 256.00 | MIC (E. coli ATCC BAA 2340): 2 µM; MBC (E. coli ATCC BAA 2340): 2 µM; MIC (E. coli ATCC BAA 2469): 1 µM; MBC (E. coli ATCC BAA 2469): 2 µM; MIC (E. coli ATCC BAA 2471): 1 µM; MBC (E. coli ATCC BAA 2471): 2 µM; MBC (E. coli NCTC 13846): 4 µM; MIC (E. coli NCTC 13846): 4 µM; time to eradicate bacteria: < 10 min
ALWKSILKNAGKAALNEINQIVQ-NH2 [SS1] |  | 8 µM | 8 µM | >128 µM | >128 µM | >128 µM | >128 µM | 4 µM | 2 µM | 16 µM | 16 µM | 32 µM | 32 µM | 16 µM | 16 µM | >128 µM | >128 µM | 256.00 µM | MIC (E. coli ATCC BAA 2340): 4 µM; MBC (E. coli ATCC BAA 2340): 4 µM; MIC (E. coli ATCC BAA 2469): 4 µM; MBC (E. coli ATCC BAA 2469): 4 µM; MIC (E. coli ATCC BAA 2471): 8 µM; MBC (E. coli ATCC BAA 2471): 8 µM; MBC (E. coli NCTC 13846): 8 µM; MIC (E. coli NCTC 13846): 8 µM
ALWKSILKNAGKAGLNEINQIVQ-NH2 [Peptide 14G] |  | >128 µM | >128 µM | >128 µM | >128 µM | >128 µM | >128 µM | 16 µM | 16 µM | >128 µM | >128 µM | > 128 µM | 32 µM | >128 µM | >128 µM | >128 µM | >128 µM | 256.00 | 
ALWKSILKNAGKALNEINQIVQ-NH2 [Peptide L14] |  | >128 µM | >128 µM | 32 µM | 32 µM | >128 µM | >128 µM | 4 µM | 4 µM | 16 µM | 16 µM | > 128 µM | 16 µM | > 128 µM | 32 µM | >128 µM | >128 µM | 256.00 | 
ALWKSILKNAGKAVLNEINQIV-NH2 [Peptide 14VL23] |  | >128 µM | >128 µM | >128 µM | >128 µM | >128 µM | >128 µM | 16 µM | 8 µM | 4 µM | 4 µM | >128 µM | >128 µM | >128 µM | >128 µM | >128 µM | >128 µM | 256.00 | 
ALWKSILKNAGKAVLNEINQIVQ-NH2 [Peptide 14V] |  | 4 µM | 4 µM | 8 µM | 8 µM | >128 µM | >128 µM | 2 µM | 2 µM | 8 µM | 8 µM | > 128 µM | 16 µM | 4 µM | 4 µM | >128 µM | >128 µM | 256.00 | 
ALWKSILKNVGKVLNEINQIVQ-NH2 [Peptide L2V] |  | >128 µM | >128 µM | 4 µM | 4 µM | >128 µM | >128 µM | >128 µM | >128 µM | > 128 µM | 8 µM | >128 µM | >128 µM | 4 µM | 4 µM | >128 µM | >128 µM | 256.00 | GM Yeast ([4]; geometric mean of MICs of Table 3, 256.00 μM used where no activity at 128.00 μM): 256.00 µM; GM Gram + (Gram-positive bacteria): 64.00 µM; GM Gram − (Gram-negative bacteria): 38.05 µM

Reference: article PMC10535717, “A Novel Antimicrobial Peptide, Dermaseptin-SS1, with Anti-Proliferative Activity, Isolated from the Skin Secretion of Phyllomedusa tarsius” (Molecules, 2023)
